# Source: ChEMBL document CHEMBL1255428, “Characterization of UDP-glucose dehydrogenase and UDP-glucose pyrophosphorylase mutants of Proteus mirabilis: defectiveness in polymyxin B resistance, swarming, and virulence” (2010)
# Calls of active or inactive are those of the source. No cut-off for these calls is given here.
# Experiments:
# [1] = test system: Proteus mirabilis; assay: Antimicrobial activity against wild type Proteus mirabilis N2 after 16 to 18 hrs by broth micro dilution assay; assay type: functional
# [2] = test system: Proteus mirabilis; assay: Antimicrobial activity against Proteus mirabilis dU2 knockout mutant after 16 to 18 hrs by broth micro dilution assay; assay type: functional
# [3] = test system: Proteus mirabilis; assay: Antimicrobial activity against Proteus mirabilis dG1 knockout after 16 to 18 hrs by broth micro dilution assay; assay type: functional
# [4] = test system: Proteus mirabilis; assay: Antimicrobial activity against Proteus mirabilis dU2 knockout mutant transformed with pACYC184-ugd after 16 to 18 hrs by broth micro dilution assay; assay type: functional
# [5] = test system: Proteus mirabilis; assay: Antimicrobial activity against Proteus mirabilis dG1 knockout mutant transformed with pACYC184-galU after 16 to 18 hrs by broth micro dilution assay; assay type: functional
# [6] = test system: Proteus mirabilis; assay: Induction of Ugd expression in wild type Proteus mirabilis N2 at 1 ug/ml by real-time RT-PCR analysis; assay type: functional, organism-based
# [7] = test system: Proteus mirabilis; assay: Induction of Ugd expression in Proteus mirabilis dA10 rppA knockout mutant at 1 ug/ml by real-time RT-PCR analysis; assay type: functional, organism-based
# [8] = test system: Proteus mirabilis; assay: Induction of Ugd expression in wild type Proteus mirabilis dA10c RppA-complemented strain at 1 ug/ml by real-time RT-PCR analysis; assay type: functional, organism-based
Compound,MIC [1] [µg/mL],MIC [2] [µg/mL],MIC [3] [µg/mL],MIC [4] [µg/mL],MIC [5] [µg/mL],Activity [6],Activity [7],Activity [8]
CCCCCCCCCCCCOS(=O)(=O)[O-].[Na+] [SODIUM LAURYL SULFATE],2000,500,500,2000,2000,,,
POLYMYXIN B,,2,4,,,Active,Active,inactive
